Reference: patent publication US7795290B2 (Genentech, Inc., priority 2004, dated 2010)
One block for each compound: values may come before it.

Columns and labels:
Test in all cases: HTS ATP-utilizing enzyme assay, off-chip mobility-shift (Caliper HTS 250)
Type in all cases: biochemical
Conditions in all cases: kinase named = inhibitory activity/selectivity; test compound 10 μM; active = greater than three-sigma from mean
CDK2 = CDK2 (Homo sapiens, UniProt P24941)
From the text: (§1) The following procedures describe the reagent and plate preparation for a HTS of an ATP-utilizing enzyme, such as a protein kinase, run in an off-chip mobility-shift assay format. The following provides an HTS protocol for running a protein kinase HTS screen on a Caliper HTS 250 microfluidics system. The following parameters are dependent on the protein kinase used and can be determined by one skilled in the art as part of a typical assay development process. For example, the peptide substrate used can be identified from the current literature, by screening a peptide library of potential protein kinase substrates, or by other applicable means accepted in the field.
(§2) Assays to determine the kinase inhibitory activity of chemical entities of the present disclosure were performed using a Caliper HTS 250 microfluidics device, Greiner U-bottom assay plates, a Multidrop for transfer of reagents, and Biomek FX (AMNCBM03) software. Initially, 2.4 μL of a 1 mM solution of a test compound in 100% DMSO was added to a well of the Greiner U-bottom plate. A single Greiner U-bottom plate having 24×16 wells could include multiple test compounds. Next, 40 μL of 1.06× Assay Buffer was added to each well of the assay plate. Using the Biomek FX, 10 μL of 0.5 M EDTA was added by the span-8 to wells, indicated as 100% Control and 2.4 μL of 100% DMSO was added by the span-8 to wells, indicated as 0% Control. Using the Multidrop, 10 μL of 2.5× Enzyme Buffer, followed by 10 μL of 2.5× Substrate Buffer was added to each well of the assay plate. The total reaction volume in each well was 25 μL, and the concentration of the test compound was 10 μM. The assay plate was incubated for 2.5 hrs at 20° C. to 22° C. After the incubation period, using the Multidrop, 45 μL of 1.55× Termination Buffer was added to each well of the assay plate to stop the reaction. The inhibition of the ATP-utilizing enzyme, such as a particular protein kinase, was determined by measuring the ratio of the peptide substrate to phosphorylated product for each well of the assay plate using the Caliper HTS 250 system.
(§3) The use of three-sigma statistical limits represents a conservative method for declaring potential hits among targets. The three-sigma activity, as well as the mean population activity, can be different for each target enzyme. This method has an expected false positive rate, from an in-control measurement process, of […].
(§4) Each chemical entity listed in Table 2 was tested for protein kinase inhibitory activity according to the biological assays and definitions of protein kinase inhibitory activity as described herein. For each exemplary compound listed in Table 2, the inhibitory activity for at least one protein kinase according to the biological assays and definitions of protein kinase inhibitory activity as described herein is indicated.

AURORA-A = molecular target: T1, AURORA-A (Homo sapiens, UniProt O14965)
T1 sequence (O14965 1-403): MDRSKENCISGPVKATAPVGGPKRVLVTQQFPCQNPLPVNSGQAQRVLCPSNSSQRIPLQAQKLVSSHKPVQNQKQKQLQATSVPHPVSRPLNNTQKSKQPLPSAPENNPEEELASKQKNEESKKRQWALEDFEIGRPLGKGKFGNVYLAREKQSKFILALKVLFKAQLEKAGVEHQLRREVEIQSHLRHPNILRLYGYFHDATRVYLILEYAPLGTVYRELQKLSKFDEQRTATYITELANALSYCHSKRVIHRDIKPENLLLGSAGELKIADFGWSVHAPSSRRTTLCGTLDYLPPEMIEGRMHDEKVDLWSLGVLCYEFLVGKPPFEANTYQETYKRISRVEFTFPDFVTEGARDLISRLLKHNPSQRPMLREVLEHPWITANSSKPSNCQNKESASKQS
From the text: as §1, §2, §3, §4

GSK-3-α = GSK-3-α (Homo sapiens, UniProt P49840)
GSK-3-α, sequence (P49840 whole entry): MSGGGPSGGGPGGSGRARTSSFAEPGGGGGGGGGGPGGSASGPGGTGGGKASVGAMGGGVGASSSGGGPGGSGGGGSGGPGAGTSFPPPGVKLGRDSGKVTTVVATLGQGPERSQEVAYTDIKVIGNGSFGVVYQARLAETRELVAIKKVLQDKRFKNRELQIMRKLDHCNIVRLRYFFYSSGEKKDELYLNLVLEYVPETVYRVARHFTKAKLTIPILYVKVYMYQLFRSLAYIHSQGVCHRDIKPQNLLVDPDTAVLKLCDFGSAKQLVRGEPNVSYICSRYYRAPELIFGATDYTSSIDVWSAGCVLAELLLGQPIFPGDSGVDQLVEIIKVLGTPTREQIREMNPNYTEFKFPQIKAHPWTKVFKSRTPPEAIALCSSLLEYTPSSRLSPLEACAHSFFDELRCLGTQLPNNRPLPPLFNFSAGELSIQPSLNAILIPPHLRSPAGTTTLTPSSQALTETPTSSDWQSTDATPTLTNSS
From the text: as §1, §2, §3, §4

DYRK2 = molecular target: T2, DYRK2 (Homo sapiens, UniProt Q92630)
T2 sequence (Q92630 1-601): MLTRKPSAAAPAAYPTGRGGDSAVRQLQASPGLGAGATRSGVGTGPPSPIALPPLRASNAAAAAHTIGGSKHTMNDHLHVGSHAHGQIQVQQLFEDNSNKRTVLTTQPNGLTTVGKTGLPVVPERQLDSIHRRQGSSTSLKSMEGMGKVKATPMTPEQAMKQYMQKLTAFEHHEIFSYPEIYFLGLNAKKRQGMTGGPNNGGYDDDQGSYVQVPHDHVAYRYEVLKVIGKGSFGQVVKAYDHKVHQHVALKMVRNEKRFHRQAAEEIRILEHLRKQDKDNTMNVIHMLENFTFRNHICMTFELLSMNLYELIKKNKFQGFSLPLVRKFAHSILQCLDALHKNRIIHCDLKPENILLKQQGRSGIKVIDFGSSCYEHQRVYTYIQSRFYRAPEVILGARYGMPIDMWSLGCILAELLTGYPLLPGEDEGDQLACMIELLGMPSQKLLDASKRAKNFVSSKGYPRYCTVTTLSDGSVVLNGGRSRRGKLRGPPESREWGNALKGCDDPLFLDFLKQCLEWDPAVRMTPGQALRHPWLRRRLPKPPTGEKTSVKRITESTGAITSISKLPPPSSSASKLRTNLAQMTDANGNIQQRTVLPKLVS
From the text: as §1, §2, §3, §4

AKT1 = molecular target: T3, AKT1 (Homo sapiens, UniProt P31749)
T3 construct: purchased Upstate 14-276
T3 sequence (P31749 whole entry): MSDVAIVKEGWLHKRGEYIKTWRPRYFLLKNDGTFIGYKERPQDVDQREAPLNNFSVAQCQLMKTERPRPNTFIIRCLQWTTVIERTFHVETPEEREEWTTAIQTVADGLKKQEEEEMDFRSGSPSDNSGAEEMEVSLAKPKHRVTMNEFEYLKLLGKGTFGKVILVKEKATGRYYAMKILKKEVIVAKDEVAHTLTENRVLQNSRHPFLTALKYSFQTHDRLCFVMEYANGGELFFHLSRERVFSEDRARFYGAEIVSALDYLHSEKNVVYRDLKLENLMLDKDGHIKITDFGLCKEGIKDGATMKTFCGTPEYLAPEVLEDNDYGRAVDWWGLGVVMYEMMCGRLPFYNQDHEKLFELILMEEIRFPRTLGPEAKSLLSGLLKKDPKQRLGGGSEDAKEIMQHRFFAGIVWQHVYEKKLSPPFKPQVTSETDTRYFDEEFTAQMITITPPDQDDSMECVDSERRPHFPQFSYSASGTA
Outline: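 AKT1 activity was measured by off-chip mobility shift (Caliper HTS 250) as the ratio of peptide substrate to phosphorylated product. Test compound was at 10 μM, with 2.5 h incubation at 20–22° C. EDTA wells served as 100% control and DMSO wells as 0%. Hits were called at three-sigma limits.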

CDK2/cyclin E = CDK2/cyclin E (Homo sapiens, UniProt P24941)
From the text: as §1, §2, §3, §4

SYK = SYK (Homo sapiens, UniProt P43405)
From the text: as §1, §2, §3, §4

FLT-3 = molecular target: T4, FLT-3 (Homo sapiens, UniProt P36888)
T4 sequence (P36888 27-993): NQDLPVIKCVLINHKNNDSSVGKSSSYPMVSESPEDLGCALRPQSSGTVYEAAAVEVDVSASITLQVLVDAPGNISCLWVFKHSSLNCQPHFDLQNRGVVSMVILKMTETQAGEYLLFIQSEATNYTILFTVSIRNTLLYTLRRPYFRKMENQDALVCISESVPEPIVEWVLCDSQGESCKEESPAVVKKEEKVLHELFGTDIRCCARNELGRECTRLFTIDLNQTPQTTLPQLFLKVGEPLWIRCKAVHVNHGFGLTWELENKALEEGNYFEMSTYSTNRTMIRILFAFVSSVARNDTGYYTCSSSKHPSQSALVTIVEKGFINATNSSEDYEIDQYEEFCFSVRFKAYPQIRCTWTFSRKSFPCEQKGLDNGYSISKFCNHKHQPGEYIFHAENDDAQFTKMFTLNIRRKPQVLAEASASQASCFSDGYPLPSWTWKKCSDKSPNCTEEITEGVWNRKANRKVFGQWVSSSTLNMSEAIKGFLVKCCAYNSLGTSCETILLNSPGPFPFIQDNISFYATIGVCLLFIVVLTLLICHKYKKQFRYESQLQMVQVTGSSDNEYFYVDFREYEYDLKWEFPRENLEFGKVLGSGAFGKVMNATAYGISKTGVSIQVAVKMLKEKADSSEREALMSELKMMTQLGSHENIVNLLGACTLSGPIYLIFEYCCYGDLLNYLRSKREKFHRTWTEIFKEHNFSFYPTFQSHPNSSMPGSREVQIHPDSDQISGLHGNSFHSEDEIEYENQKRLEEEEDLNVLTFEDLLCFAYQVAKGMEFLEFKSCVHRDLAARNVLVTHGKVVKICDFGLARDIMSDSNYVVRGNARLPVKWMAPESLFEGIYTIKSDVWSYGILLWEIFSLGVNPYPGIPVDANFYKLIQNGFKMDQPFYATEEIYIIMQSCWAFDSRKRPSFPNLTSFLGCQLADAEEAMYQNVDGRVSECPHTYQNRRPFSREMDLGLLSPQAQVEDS
From the text: as §1, §2, §3, §4

CHEK2 = CHEK2 (Homo sapiens, UniProt O96017)
CHEK2, sequence (O96017 whole entry): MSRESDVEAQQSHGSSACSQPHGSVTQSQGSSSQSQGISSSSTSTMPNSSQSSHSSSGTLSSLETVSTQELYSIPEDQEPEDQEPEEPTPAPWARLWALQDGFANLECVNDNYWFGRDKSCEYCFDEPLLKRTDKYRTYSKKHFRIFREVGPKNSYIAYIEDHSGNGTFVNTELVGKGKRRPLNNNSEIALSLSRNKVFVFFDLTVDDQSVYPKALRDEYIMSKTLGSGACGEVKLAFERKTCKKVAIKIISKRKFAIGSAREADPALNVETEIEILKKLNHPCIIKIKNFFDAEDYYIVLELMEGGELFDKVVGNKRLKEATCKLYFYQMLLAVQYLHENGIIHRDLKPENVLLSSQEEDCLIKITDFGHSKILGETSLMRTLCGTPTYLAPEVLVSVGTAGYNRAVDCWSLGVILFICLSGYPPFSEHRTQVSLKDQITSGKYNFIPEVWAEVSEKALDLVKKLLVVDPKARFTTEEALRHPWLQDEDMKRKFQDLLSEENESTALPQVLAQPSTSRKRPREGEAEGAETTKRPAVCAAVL
From the text: as §1, §2, §3, §4

MAPKAPK-2 = MAPKAPK-2 (Homo sapiens, UniProt P49137)
MAPKAPK-2, sequence (P49137 whole entry): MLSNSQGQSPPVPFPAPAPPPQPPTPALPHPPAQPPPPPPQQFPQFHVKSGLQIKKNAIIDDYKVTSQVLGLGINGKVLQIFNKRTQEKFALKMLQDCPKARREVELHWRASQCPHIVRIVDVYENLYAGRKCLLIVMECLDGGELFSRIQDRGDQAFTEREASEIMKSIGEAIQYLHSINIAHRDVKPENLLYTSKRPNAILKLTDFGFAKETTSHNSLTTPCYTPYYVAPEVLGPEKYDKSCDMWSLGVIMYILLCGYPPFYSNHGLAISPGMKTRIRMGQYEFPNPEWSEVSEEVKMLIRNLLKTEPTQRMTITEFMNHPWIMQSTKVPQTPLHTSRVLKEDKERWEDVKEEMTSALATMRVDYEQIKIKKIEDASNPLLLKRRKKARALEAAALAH
From the text: as §1, §2, §3, §4

INSR = INSR (Homo sapiens, UniProt P06213)
INSR, sequence (P06213 28-1382): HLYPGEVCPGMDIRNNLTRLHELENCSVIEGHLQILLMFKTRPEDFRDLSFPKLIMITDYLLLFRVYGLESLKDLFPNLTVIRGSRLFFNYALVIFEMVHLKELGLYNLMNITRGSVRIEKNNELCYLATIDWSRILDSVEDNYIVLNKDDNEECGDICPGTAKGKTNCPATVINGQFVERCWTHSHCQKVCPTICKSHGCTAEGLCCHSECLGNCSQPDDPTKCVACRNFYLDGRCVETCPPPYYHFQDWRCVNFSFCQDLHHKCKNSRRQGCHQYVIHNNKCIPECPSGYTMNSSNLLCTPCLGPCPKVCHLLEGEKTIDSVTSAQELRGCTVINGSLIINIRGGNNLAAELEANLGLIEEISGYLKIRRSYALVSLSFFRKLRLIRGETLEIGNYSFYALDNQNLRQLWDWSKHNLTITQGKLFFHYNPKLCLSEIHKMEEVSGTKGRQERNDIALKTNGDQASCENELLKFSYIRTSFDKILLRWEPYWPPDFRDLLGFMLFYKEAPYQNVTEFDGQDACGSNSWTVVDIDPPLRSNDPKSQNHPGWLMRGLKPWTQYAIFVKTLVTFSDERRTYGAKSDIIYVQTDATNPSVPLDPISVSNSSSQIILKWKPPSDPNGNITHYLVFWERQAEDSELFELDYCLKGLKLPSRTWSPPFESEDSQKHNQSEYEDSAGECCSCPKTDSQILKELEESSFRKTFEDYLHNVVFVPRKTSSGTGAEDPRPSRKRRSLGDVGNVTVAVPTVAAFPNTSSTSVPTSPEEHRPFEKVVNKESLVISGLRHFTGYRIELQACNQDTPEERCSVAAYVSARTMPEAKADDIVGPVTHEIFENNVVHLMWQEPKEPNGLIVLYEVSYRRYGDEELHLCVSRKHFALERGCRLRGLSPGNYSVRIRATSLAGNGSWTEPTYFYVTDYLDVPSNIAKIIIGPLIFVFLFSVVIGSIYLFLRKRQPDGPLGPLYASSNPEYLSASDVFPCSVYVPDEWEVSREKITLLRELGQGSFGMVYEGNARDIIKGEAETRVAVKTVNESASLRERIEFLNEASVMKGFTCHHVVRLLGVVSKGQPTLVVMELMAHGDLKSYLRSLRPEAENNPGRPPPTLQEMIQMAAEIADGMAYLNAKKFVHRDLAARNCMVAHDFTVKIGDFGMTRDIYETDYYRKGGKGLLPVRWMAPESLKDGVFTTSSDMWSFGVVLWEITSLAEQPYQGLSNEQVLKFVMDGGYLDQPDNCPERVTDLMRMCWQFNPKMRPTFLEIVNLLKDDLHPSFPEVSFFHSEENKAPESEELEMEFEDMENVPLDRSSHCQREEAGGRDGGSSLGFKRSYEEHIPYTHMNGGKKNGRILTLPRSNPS
From the text: as §1, §2, §3, §4

KIT = KIT (Homo sapiens, UniProt P10721)
KIT, sequence (P10721 26-976): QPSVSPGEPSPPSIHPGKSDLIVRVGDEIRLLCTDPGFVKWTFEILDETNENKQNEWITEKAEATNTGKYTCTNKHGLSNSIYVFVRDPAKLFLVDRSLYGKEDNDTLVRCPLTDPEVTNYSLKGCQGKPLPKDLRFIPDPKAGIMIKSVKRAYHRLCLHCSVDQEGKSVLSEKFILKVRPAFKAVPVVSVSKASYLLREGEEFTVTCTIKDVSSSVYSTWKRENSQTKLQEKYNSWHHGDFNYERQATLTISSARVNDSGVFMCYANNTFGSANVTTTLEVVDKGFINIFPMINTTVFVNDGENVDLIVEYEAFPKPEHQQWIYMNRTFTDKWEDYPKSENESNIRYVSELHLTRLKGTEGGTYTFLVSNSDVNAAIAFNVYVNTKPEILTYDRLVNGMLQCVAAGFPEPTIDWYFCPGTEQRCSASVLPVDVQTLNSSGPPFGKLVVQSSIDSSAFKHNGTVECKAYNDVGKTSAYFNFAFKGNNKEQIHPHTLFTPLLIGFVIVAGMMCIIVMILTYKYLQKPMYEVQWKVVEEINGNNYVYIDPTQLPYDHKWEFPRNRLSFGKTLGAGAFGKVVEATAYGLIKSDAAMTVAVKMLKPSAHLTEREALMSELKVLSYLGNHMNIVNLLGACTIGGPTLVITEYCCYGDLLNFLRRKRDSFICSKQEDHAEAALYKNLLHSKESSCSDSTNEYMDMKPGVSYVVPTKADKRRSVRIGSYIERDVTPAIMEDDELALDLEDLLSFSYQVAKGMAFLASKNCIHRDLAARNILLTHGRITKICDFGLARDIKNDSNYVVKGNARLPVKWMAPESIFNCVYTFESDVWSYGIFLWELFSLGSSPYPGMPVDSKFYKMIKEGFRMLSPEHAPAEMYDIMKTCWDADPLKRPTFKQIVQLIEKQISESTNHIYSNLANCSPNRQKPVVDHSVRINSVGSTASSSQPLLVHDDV
From the text: as §1, §2, §3, §4

ZAP70 = molecular target: T5, ZAP70 (Homo sapiens, UniProt P43403)
T5 sequence (P43403 1-619): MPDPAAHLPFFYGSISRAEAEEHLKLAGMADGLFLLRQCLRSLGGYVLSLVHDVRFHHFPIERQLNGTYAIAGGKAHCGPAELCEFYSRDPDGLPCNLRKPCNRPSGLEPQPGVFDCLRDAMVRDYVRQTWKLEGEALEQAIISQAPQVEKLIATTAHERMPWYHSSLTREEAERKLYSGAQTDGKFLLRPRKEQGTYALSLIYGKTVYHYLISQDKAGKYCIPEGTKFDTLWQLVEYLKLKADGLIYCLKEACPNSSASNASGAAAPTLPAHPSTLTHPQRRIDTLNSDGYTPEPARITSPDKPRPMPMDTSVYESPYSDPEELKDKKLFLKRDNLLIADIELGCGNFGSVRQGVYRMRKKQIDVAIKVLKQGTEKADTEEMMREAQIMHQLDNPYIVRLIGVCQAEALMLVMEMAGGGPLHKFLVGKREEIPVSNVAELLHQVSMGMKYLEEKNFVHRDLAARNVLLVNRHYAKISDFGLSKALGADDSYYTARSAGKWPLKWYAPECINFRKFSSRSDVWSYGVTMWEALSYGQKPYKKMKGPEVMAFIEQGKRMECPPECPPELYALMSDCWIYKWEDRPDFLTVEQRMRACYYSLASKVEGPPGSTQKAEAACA
From the text: as §1, §2, §3, §4

Activity (CDK2): CDK2
SMILES: COc1ccc(-c2csc(N(CCCN3CCOCC3)C(=O)c3cc(Cl)sc3Cl)n2)cc1 [2,5-dichloro-N-(4-(4-methoxyphenyl)thiazol-2-yl)-N-(3-morpholinopropyl)thiophene-3-carboxamide]

Activity (CDK2/cyclin E): CDK2/cyclin E
SMILES: COc1ccc(-c2csc(N(CCCN3CCOCC3)C(=O)c3cc(C)n(C)c3C)n2)cc1 [N-(4-(4-methoxyphenyl)thiazol-2-yl)-1,2,5-trimethyl-N-(3-morpholinopropyl)-1H-pyrrole-3-carboxamide]

Activity (FLT-3): FLT-3
SMILES: COc1ccc(-c2csc(N(CCCN3CCOCC3)C(=O)c3ccc(C)cc3)n2)cc1 [N-(4-(4-methoxyphenyl)thiazol-2-yl)-4-methyl-N-(3-morpholinopropyl)benzamide]

Activity (AKT1): AKT1 | Activity (INSR): INSR
SMILES: COc1ccc(-c2csc(N(CCCN3CCN(C)CC3)C(=O)c3cccs3)n2)cc1 [N-(4-(4-methoxyphenyl)thiazol-2-yl)-N-(3-(4-methylpiperazin-1-yl)propyl)thiophene-2-carboxamide]

Activity (FLT-3): FLT-3 | Activity (KIT): KIT | Activity (ZAP70): ZAP70
SMILES: COc1ccc(-c2csc(N(CCCN3CCOCC3)C(=O)c3ccc([N+](=O)[O-])s3)n2)cc1 [N-(4-(4-methoxyphenyl)thiazol-2-yl)-N-(3-morpholinopropyl)-5-nitrothiophene-2-carboxamide]

Continued, compound first:

SMILES: COc1ccc(OC)c(-c2csc(N(Cc3ccco3)C(=O)CCC(=O)O)n2)c1 [4-((4-(2,5-dimethoxyphenyl)thiazol-2-yl)(furan-2-ylmethyl)amino)-4-oxobutanoic acid]
Activity (AURORA-A): AURORA-A | Activity (GSK-3-α): GSK-3-α

SMILES: CCCCN(C(=O)CCC(=O)O)c1nc(-c2cc(OC)ccc2OC)cs1 [4-(butyl(4-(2,5-dimethoxyphenyl)thiazol-2-yl)amino)-4-oxobutanoic acid]
Activity (AURORA-A): AURORA-A | Activity (GSK-3-α): GSK-3-α

SMILES: COc1ccc(-c2csc(N(CC(C)C)C(=O)CCC(=O)O)n2)cc1 [4-(isobutyl(4-(4-methoxyphenyl)thiazol-2-yl)amino)-4-oxobutanoic acid]
Activity (AURORA-A): AURORA-A | Activity (DYRK2): DYRK2

SMILES: O=C(c1cccs1)N(CCCN1CCOCC1)c1nc(-c2cccnc2)cs1 [N-(3-morpholinopropyl)-N-(4-(pyridin-3-yl)thiazol-2-yl)thiophene-2-carboxamide]
Activity (AKT1): AKT1 | Activity (CDK2/cyclin E): CDK2/cyclin E

SMILES: CCN(CC)c1ccc(-c2csc(N(CCCN3CCOCC3)C(=O)c3cccs3)n2)cc1 [N-(4-(4-(diethylamino)phenyl)thiazol-2-yl)-N-(3-morpholinopropyl)thiophene-2-carboxamide]
Activity (AKT1): AKT1 | Activity (SYK): SYK

SMILES: COc1ccc(-c2csc(N(CCCN3CCN(C)CC3)C(=O)c3ccco3)n2)cc1 [N-(4-(4-methoxyphenyl)thiazol-2-yl)-N-(3-(4-methylpiperazin-1-yl)propyl)furan-2-carboxamide]
Activity (AKT1): AKT1 | Activity (CHEK2): CHEK2 | Activity (MAPKAPK-2): MAPKAPK-2
